Measurements reported in paper PMC4580987, “Catalytic site inhibition of insulin-degrading enzyme by a small molecule induces glucose intolerance in mice” (Nature Communications, 2015).

Key:
[1] = molecular target: T1, hIDE (Homo sapiens, UniProt P14735); assay: In vitro hIDE inhibition of Aβ16–23-based substrate hydrolysis; type: biochemical
T1 construct: made in house
T1 sequence (P14735 1-1019): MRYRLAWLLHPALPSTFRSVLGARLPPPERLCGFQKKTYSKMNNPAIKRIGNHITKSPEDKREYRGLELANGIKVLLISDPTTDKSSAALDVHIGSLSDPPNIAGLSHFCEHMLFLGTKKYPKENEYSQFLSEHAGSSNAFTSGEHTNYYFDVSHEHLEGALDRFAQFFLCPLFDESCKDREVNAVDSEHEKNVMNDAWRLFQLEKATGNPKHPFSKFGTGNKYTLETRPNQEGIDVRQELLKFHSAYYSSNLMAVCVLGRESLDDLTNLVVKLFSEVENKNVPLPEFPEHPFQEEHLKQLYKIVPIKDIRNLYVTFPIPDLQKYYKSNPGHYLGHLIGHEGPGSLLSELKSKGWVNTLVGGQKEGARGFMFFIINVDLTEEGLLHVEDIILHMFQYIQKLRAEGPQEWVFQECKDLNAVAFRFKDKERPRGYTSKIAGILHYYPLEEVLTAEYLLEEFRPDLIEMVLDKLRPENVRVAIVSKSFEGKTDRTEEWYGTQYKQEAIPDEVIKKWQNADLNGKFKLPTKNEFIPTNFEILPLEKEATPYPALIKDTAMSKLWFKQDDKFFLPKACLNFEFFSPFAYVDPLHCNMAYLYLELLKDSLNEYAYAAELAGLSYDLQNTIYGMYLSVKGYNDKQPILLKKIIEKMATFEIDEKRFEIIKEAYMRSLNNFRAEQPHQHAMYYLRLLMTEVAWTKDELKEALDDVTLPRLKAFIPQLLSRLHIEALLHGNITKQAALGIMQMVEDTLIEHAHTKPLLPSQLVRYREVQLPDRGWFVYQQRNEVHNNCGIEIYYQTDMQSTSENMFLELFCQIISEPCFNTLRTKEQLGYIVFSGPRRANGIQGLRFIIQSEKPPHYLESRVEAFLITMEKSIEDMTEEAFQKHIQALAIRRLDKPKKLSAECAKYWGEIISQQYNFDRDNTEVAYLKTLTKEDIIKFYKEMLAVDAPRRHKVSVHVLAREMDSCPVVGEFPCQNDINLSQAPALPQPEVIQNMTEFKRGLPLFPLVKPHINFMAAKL
Experimental: In vitro IDE activity was measured with a quenched substrate […]. Human recombinant IDE was cloned and purified as previously described. […] All measurements were carried out as 8-point dose response curves and reported as the average of at least three independent measurements. […] Data analysis was performed using Xlfit v 5.0 and GraphPad Prism v 4.0. Nonlinear curve fitting and statistical analysis was done using built-in functions.

[2] = molecular target: T1, hIDE; assay: In vitro hIDE inhibition of insulin hydrolysis; type: biochemical; details: substrate native insulin; means of two experiments minimum, s.d.±10%; read-out: Selectivity IC50 hIDE
Experimental: The enzymatic activity of hIDE was assayed quantifying the amount of insulin (Actrapid) at the end of the reaction. The quantity of insulin was determined using a Luminex kit (HMHMAG-34K, Millipore). 20 μl of WT IDE in Hepes buffer (50 mM with 100 mM NaCl, pH 7.4) at 1 μg ml^−1 were pre-incubated 10 min at ambient temperature with 20 μl of test compound or vehicle in 96-well microtiter plates (dark, non-binding surface). The reaction was then started by the addition of 40 μl of insulin at 40 nM. The final concentration of hIDE and substrate was 0.25 μg ml^−1 and 20 nM, respectively. Incubations were performed at ambient temperature for 10 min. The reaction was then stopped by addition of 80 μl of 200 mM EDTA. The samples were diluted by a factor of 3, and 15 μl were transferred to 96-well microtiter plates (dark, clear bottom, non-binding surface) containing 15 μl of assay buffer (from Luminex Kit). Fifteen microlitre of insulin magnetic beads were added. Incubation was performed during 16–18 h at 4 °C under agitation. Wells were washed three times and 30 μl of hormone panel antibodies were added. The samples were incubated 30 min at ambient temperature under agitation. 30 μl of strepdavidin-phycoerythrin were added. Incubation was performed 30 min at ambient temperature under agitation. Wells were washed three times and 80 μl of drive fluid were added. The plate was then read with the MagPix apparatus. Data analysis was performed using Xlfit v 5.0 and GraphPad Prism v 4.0. Nonlinear curve fitting and statistical analysis was done using equation 1: […]
where A is minimum value of y; B is range of y; C is the IC50 value and D is slope factor.

[3] = Stability in rat plasma; type: in vitro ADME; details: both sexes, 37 °C, read-out: Plasma stability r (t1/2)
Experimental: Incubations were performed in duplicate in Eppendorf tubes. The plasma (mouse plasma, rat plasma (mixed gender), human (mixed gender, all lithium heparine, from Sera Laboratories International) or cell culture medium (differenciation medium: DMEM (Life Technologies, Ref 41965), 0.4 % gentamicine, 10 % FCS (Lonza, Ref DE14-801F) or proliferation medium: DMEM (Life Technologies, Ref 41965), 0.4 % gentamicine, 2 % horse serum (Gbco, Ref16050) was pre-incubated 5 min at 37 °C before the addition of test compounds to a final concentration of 10 μM (1% DMSO maximum). At the defined time points, 50 μl from each tube were removed to another tube containing 450 μl of cold CH3CN+ internal standard (1 μM). After centrifugation (10 min at 10,000 r.p.m.), supernatants are analysed. The degradation half-life (t1/2) values were calculated as t1/2=0.693/k where k is the first-order degradation rate constant. The degradation rate constant (k) was estimated by one-phase exponential decay nonlinear regression analysis of the degradation time course data using Xlfit software (version 2.1.2 or higher) from IDBS.Ltd.

## O=C(C[C@@H](Cc1ccc2ccccc2c1)n1cc(CNC(=O)c2ccc(F)cc2)nn1)NO [Compound 1]
[1]
  IC50: 300 nM
[2]
  IC50: 60 nM
[3]
  half-life at 10 μM: 13.3 h
